According to ChEMBL document CHEMBL1137656, “Effects of serum on in vitro susceptibility testing of echinocandins” (Antimicrob Agents Chemother, 2007):
Numbered stars: 1 amine (or outer) side, 2 acyl side, 3 side chain; on linkers, the order of the positions; unused ones are H or OH. Bridge positions count the residues as written; N and C are the ends. Square brackets hold non-standard residues; d marks the D form. Peptide text beside a SMILES is read from it. * marks the point of attachment. hTyr(3S-OH,4S-OH,3'-OSO3H) = N[C@H](C(=O)O)[C@H](O)[C@@H](O)c1ccc(O)c(OS(=O)(=O)O)c1; pTerphenylCO(4''-OnC5H11) = CCCCCOc1ccc(-c2ccc(-c3ccc(C(=O)*)cc3)cc2)cc1; Orn(4R-OH,5R-OH) = O=C([C@H](C[C@@H](O)[C@@H](O)N[*:3])N[*:1])[*:2]; hTyr(3S-OH,4S-OH) = N[C@H](C(=O)O)[C@H](O)[C@@H](O)c1ccc(O)cc1; Pro(3S-OH,4S-Me) = C[C@H]1CN[C@H](C(=O)O)[C@H]1O; X1 = CCCCCOc1ccc(-c2cc(-c3ccc(C(=O)*)cc3)no2)cc1; Gln(3R-OH) = NC(=O)C[C@@H](O)[C@H](N)C(=O)O; Hyp = O=C(O)[C@@H]1C[C@@H](O)CN1

Columns and labels:
Format in all cases: functional
Aspergillus flavus = test: Ratio of MIC50 for Aspergillus flavus isolate 0001-061 in presence of 50% human serum to MIC50 for Aspergillus flavus isolate 0001-061 in presence of RPMI 1640 medium
Nakaseomyces glabratus [1] = test: Ratio of MIC50 for Candida glabrata isolate 0049-038 in presence of 50% human serum to MIC50 for Candida glabrata isolate 0049-038 in presence of RPMI 1640 medium
Pichia kudriavzevii [2] = test: Antifungal activity against Candida krusei isolate 0013-054 after 24 hrs by CLSI M27-A2 broth microdilution method in presence of RPMI 1640 medium; settings: isolate 0013-054, 24 h
Pichia kudriavzevii [3] = test: Antifungal activity against Candida krusei isolate 0013-054 after 24 hrs by CLSI M27-A2 broth microdilution method in presence of 50% human serum; settings: isolate 0013-054, 24 h
Pichia kudriavzevii [4] = test: Ratio of MIC50 for Candida krusei isolate 0013-054 in presence of 50% human serum to MIC50 for Candida krusei isolate 0013-054 in presence of RPMI 1640 medium
Pichia kudriavzevii [5] = test: Antifungal activity against Candida krusei ATCC 6258 after 24 hrs by CLSI M27-A2 broth microdilution method in presence of 50% human serum; settings: ATCC 6258, 24 h
Clavispora lusitaniae [6] = test: Antifungal activity against Candida lusitaniae isolate 0013-002 after 24 hrs by CLSI M27-A2 broth microdilution method in presence of RPMI 1640 medium; settings: isolate 0013-002, 24 h
Clavispora lusitaniae [7] = test: Antifungal activity against Candida lusitaniae isolate 0013-002 after 24 hrs by CLSI M27-A2 broth microdilution method in presence of 50% human serum; settings: isolate 0013-002, 24 h
Candida parapsilosis [8] = test: Antifungal activity against Candida parapsilosis isolate 0014-074 after 24 hrs by CLSI M27-A2 broth microdilution method in presence of RPMI 1640 medium; settings: Lodderomyces parapsilosis, isolate 0014-074, 24 h
Candida albicans [9] = test: Ratio of MIC50 for Candida albicans isolate 0012-025 in presence of 50% human serum to MIC50 for Candida albicans isolate 0012-025 in presence of RPMI 1640 medium
Clavispora lusitaniae [10] = test: Antifungal activity against Candida lusitaniae isolate 0015-049 after 24 hrs by CLSI M27-A2 broth microdilution method in presence of 50% human serum
Candida parapsilosis [11] = test: Antifungal activity against Candida parapsilosis isolate 0026-003 after 24 hrs by CLSI M27-A2 broth microdilution method in presence of RPMI 1640 medium; settings: Lodderomyces parapsilosis, isolate 0026-003, 24 h
Candida parapsilosis [12] = test: Ratio of MIC50 for Candida parapsilosis isolate 0026-003 in presence of 50% human serum to MIC50 for Candida parapsilosis isolate 0026-003 in presence of RPMI 1640 medium
Candida parapsilosis [13] = test: Antifungal activity against Candida parapsilosis isolate 0036-030 after 24 hrs by CLSI M27-A2 broth microdilution method in presence of 50% human serum; settings: Lodderomyces parapsilosis, isolate 0036-030, 24 h
Candida parapsilosis [14] = test: Ratio of MIC50 for Candida parapsilosis isolate 0036-030 in presence of 50% human serum to MIC50 for Candida parapsilosis isolate 0036-030 in presence of RPMI 1640 medium
Candida parapsilosis [15] = test: Antifungal activity against Candida parapsilosis ATCC 22019 after 24 hrs by CLSI M27-A2 broth microdilution method in presence of 50% human serum; settings: Lodderomyces parapsilosis, ATCC 22019, 24 h
Candida albicans [16] = test: Ratio of MIC50 for Candida albicans isolate 0021-076 in presence of 50% human serum to MIC50 for Candida albicans isolate 0021-076 in presence of RPMI 1640 medium
Nakaseomyces glabratus [17] = test: Antifungal activity against Candida glabrata isolate 0022-012 after 24 hrs by CLSI M27-A2 broth microdilution method in presence of RPMI 1640 medium; settings: isolate 0022-012, 24 h
Nakaseomyces glabratus [18] = test: Ratio of MIC50 for Candida glabrata isolate 0022-012 in presence of 50% human serum to MIC50 for Candida glabrata isolate 0022-012 in presence of RPMI 1640 medium
Nakaseomyces glabratus [19] = test: Antifungal activity against Candida glabrata isolate 0049-038 after 24 hrs by CLSI M27-A2 broth microdilution method in presence of RPMI 1640 medium; settings: isolate 0049-038, 24 h
Candida tropicalis [20] = test: Antifungal activity against Candida tropicalis isolate 0050-028 after 24 hrs by CLSI M27-A2 broth microdilution method in presence of RPMI 1640 medium; settings: isolate 0050-028, 24 h
Candida tropicalis [21] = test: Antifungal activity against Candida tropicalis isolate 0050-028 after 24 hrs by CLSI M27-A2 broth microdilution method in presence of 50% human serum; settings: isolate 0050-028, 24 h
Candida tropicalis [22] = test: Ratio of MIC50 for Candida tropicalis isolate 0050-028 in presence of 50% human serum to MIC50 for Candida tropicalis isolate 0050-028 in presence of RPMI 1640 medium
Aspergillus terreus = test: Ratio of MIC50 for Aspergillus terreus isolate 0031-087 in presence of 50% human serum to MIC50 for Aspergillus terreus isolate 0031-087 in presence of RPMI 1640 medium
Aspergillus niger = test: Antifungal activity against Aspergillus niger isolate 0001-073 after 24 hrs by CLSI M38-A broth microdilution method in presence of RPMI 1640 medium; settings: isolate 0001-073, 24 h
Aspergillus fumigatus [23] = test: Antifungal activity against Aspergillus fumigatus isolate 0002-0016 after 24 hrs by CLSI M38-A broth microdilution method in presence of RPMI 1640 medium; settings: isolate 0002-0016, 24 h
Aspergillus fumigatus [24] = test: Antifungal activity against Aspergillus fumigatus isolate 0002-0016 after 24 hrs by CLSI M38-A broth microdilution method in presence of 50% human serum; settings: isolate 0002-0016, 24 h
Aspergillus fumigatus [25] = test: Antifungal activity against Aspergillus fumigatus isolate 0020-018 after 24 hrs by CLSI M38-A broth microdilution method in presence of RPMI 1640 medium; settings: isolate 0020-018, 24 h
Aspergillus fumigatus [26] = test: Antifungal activity against Aspergillus fumigatus isolate 0020-018 after 24 hrs by CLSI M38-A broth microdilution method in presence of 50% human serum; settings: isolate 0020-018, 24 h
Aspergillus fumigatus [27] = test: Ratio of MIC50 for Aspergillus fumigatus isolate […] in presence of 50% human serum to MIC50 for Aspergillus fumigatus isolate 0020-018 in presence of RPMI 1640 medium
Aspergillus fumigatus [28] = test: Antifungal activity against Aspergillus fumigatus isolate 0002-021 after 24 hrs by CLSI M38-A broth microdilution method in presence of 50% human serum; settings: isolate 0002-021, 24 h
Aspergillus fumigatus [29] = test: Ratio of MIC50 for Aspergillus fumigatus isolate 0002-021 in presence of 50% human serum to MIC50 for Aspergillus fumigatus isolate 0002-021 in presence of RPMI 1640 medium

SMILES	Ratio (Aspergillus flavus)	Ratio (Nakaseomyces glabratus [1])	MIC50 (Pichia kudriavzevii [2])	MIC50 (Pichia kudriavzevii [3])	Ratio (Pichia kudriavzevii [4])	MIC50 (Pichia kudriavzevii [5])	MIC50 (Clavispora lusitaniae [6])	MIC50 (Clavispora lusitaniae [7])	MIC50 (Candida parapsilosis [8])	Ratio (Candida albicans [9])	MIC50 (Clavispora lusitaniae [10])	MIC50 (Candida parapsilosis [11])	Ratio (Candida parapsilosis [12])	MIC50 (Candida parapsilosis [13])	Ratio (Candida parapsilosis [14])	MIC50 (Candida parapsilosis [15])	Ratio (Candida albicans [16])	MIC50 (Nakaseomyces glabratus [17])	Ratio (Nakaseomyces glabratus [18])	MIC50 (Nakaseomyces glabratus [19])	other results
CCCCCOc1ccc(-c2ccc(-c3ccc(C(=O)N[C@H]4C[C@@H](O)[C@@H](O)NC(=O)[C@@H]5[C@@H](O)[C@@H](C)CN5C(=O)[C@H]([C@@H](C)O)NC(=O)[C@H]([C@H](O)[C@@H](O)c5ccc(O)cc5)NC(=O)[C@@H]5C[C@@H](O)CN5C(=O)[C@H]([C@@H](C)O)NC4=O)cc3)cc2)cc1 [ANIDULAFUNGIN] ({pTerphenylCO(4''-OnC5H11)}-[Orn(4R-OH,5R-OH)]T[Hyp][hTyr(3S-OH,4S-OH)]T[Pro(3S-OH,4S-Me)]; lactam 1-C)	32	32	0.125 µg/mL	4 µg/mL	32	2 µg/mL	0.002 µg/mL	1 µg/mL	0.004 µg/mL	16	1 µg/mL	2 µg/mL	64	128 µg/mL	128	64 µg/mL	256	0.0313 µg/mL	32	0.0625 µg/mL	MIC50 (Candida tropicalis [20]): 1 µg/mL; MIC50 (Candida tropicalis [21]): 128 µg/mL; Ratio (Candida tropicalis [22]): 128; Ratio (Aspergillus terreus): 16; MIC50 (Aspergillus niger): 0.001 µg/mL; MIC50 (Aspergillus fumigatus [23]): 2 µg/mL; MIC50 (Aspergillus fumigatus [24]): 128 µg/mL; MIC50 (Aspergillus fumigatus [25]): 0.5 µg/mL; MIC50 (Aspergillus fumigatus [26]): 128 µg/mL; Ratio (Aspergillus fumigatus [27]): 256; MIC50 (Aspergillus fumigatus [28]): 128 µg/mL; Ratio (Aspergillus fumigatus [29]): 64000
CC[C@H](C)C[C@H](C)CCCCCCCCC(=O)N[C@H]1C[C@@H](O)[C@@H](NCCN)NC(=O)[C@@H]2[C@@H](O)CCN2C(=O)[C@H]([C@H](O)CCN)NC(=O)[C@H]([C@H](O)[C@@H](O)c2ccc(O)cc2)NC(=O)[C@@H]2C[C@@H](O)CN2C(=O)[C@H]([C@@H](C)O)NC1=O [CASPOFUNGIN]	1	1	0.5 µg/mL	2 µg/mL	4	4 µg/mL	0.25 µg/mL	0.25 µg/mL	0.25 µg/mL	1	1 µg/mL	1 µg/mL	8	8 µg/mL	8	8 µg/mL	8	0.5 µg/mL	1	0.5 µg/mL	MIC50 (Candida tropicalis [20]): 0.5 µg/mL; MIC50 (Candida tropicalis [21]): 2 µg/mL; Ratio (Candida tropicalis [22]): 4; Ratio (Aspergillus terreus): 1; MIC50 (Aspergillus niger): 0.0004 µg/mL; MIC50 (Aspergillus fumigatus [23]): 8 µg/mL; MIC50 (Aspergillus fumigatus [24]): 128 µg/mL; MIC50 (Aspergillus fumigatus [25]): 16 µg/mL; MIC50 (Aspergillus fumigatus [26]): 128 µg/mL; Ratio (Aspergillus fumigatus [27]): 8; MIC50 (Aspergillus fumigatus [28]): 128 µg/mL; Ratio (Aspergillus fumigatus [29]): 128
CCCCCOc1ccc(-c2cc(-c3ccc(C(=O)N[C@H]4C[C@@H](O)[C@@H](O)NC(=O)[C@@H]5[C@@H](O)[C@@H](C)CN5C(=O)[C@H]([C@H](O)CC(N)=O)NC(=O)[C@H]([C@H](O)[C@@H](O)c5ccc(O)c(OS(=O)(=O)O)c5)NC(=O)[C@@H]5C[C@@H](O)CN5C(=O)[C@H]([C@@H](C)O)NC4=O)cc3)no2)cc1 [MICAFUNGIN] (X1-[Orn(4R-OH,5R-OH)]T[Hyp][hTyr(3S-OH,4S-OH,3'-OSO3H)][Gln(3R-OH)][Pro(3S-OH,4S-Me)]; lactam 1-C)	1024	256	0.125 µg/mL	8 µg/mL	64	8 µg/mL	0.008 µg/mL	1 µg/mL	0.0156 µg/mL	64	4 µg/mL	0.5 µg/mL	128	128 µg/mL	256	32 µg/mL	128	0.0156 µg/mL	64	0.004 µg/mL	MIC50 (Candida tropicalis [20]): 0.25 µg/mL; MIC50 (Candida tropicalis [21]): 32 µg/mL; Ratio (Candida tropicalis [22]): 128; Ratio (Aspergillus terreus): 128; MIC50 (Aspergillus niger): 0.002 µg/mL; MIC50 (Aspergillus fumigatus [23]): 0.0313 µg/mL; MIC50 (Aspergillus fumigatus [24]): 2 µg/mL; MIC50 (Aspergillus fumigatus [25]): 0.0156 µg/mL; MIC50 (Aspergillus fumigatus [26]): 0.5 µg/mL; Ratio (Aspergillus fumigatus [27]): 32; MIC50 (Aspergillus fumigatus [28]): 1 µg/mL; Ratio (Aspergillus fumigatus [29]): 1024
